Reference: US20050239856A1, “Method for prophylaxis and treatment of diabetic complications with 4{alpha-hydroxy-2-methyl-5-(1-imidazolyl)benzyl}-3,5-dimethylbenzoic acid and derivatives” (priority 1995, published 2005)

Key:
[1] = system: tail nerve of streptozotocin diabetic Sprague-Dawley rats; assay: Tail nerve conduction velocity in streptozotocin-induced diabetic rats (Experimental Example 1); type: in vivo, rat; conditions: STZ diabetic rats; for tail nerve conduction velocity 7 wks after administration / tail nerve conduction velocity 5 wks after administration / tail nerve conduction velocity 4 wks after administration: mean ± standard error; for effect on tail nerve conduction velocity decreased by diabetes (in words): dose-dependent, oral once a day
Protocol: (§1) Diabetes was induced by intravenous administration of streptozotocin (65 mg/kg) to 6-week-old male Sprague-Dawley rats. Starting from 2-4 weeks after the onset of diabetes, a 0.5% hydroxypropylmethylcellulose suspension containing the compound of the present invention was orally administered once a day. At 4-7 weeks from the administration, tail nerve conduction velocity was measured with an induction potential test device (Neuropack 2, manufactured by Nihon Kohden) according to a modification of the method of Miyoshi (Fukuoka Medical Journal, vol. 62, pp. 588-603 (1971)). To be specific, subcutaneous temperature at the tail was maintained at 37° C. and the tail nerve was percutaneously stimulated electrically at 2 stimulation points (interval 6 cm). The distance between stimulation points was divided by the difference between latencies in electromyogram induced to give nerve conduction velocity. As to the test group in Table 1, blood glucose was measured at 6 weeks after administration. At 7 weeks after administration, urinary excretion of TXB2, which is a stable metabolite of TXA2, was measured.

[2] = Blood glucose in streptozotocin-induced diabetic rats (Experimental Example 1); type: in vivo, rat; conditions: STZ diabetic rats; for blood glucose: 6 weeks after administration, mean ± standard error
Protocol: as §1

[3] = system: TXA2 biosynthesis (urinary TXB2); assay: Urinary excretion of TXB2, stable metabolite of TXA2, in streptozotocin-induced diabetic rats (Experimental Example 1); type: in vivo, rat; conditions: STZ diabetic rats; for urinary TXB2 excretion: 7 weeks after administration, mean ± standard error
Protocol: as §1

[4] = system: tail nerve of streptozotocin diabetic Sprague-Dawley rats; assay: Tail nerve conduction velocity in rats, administration from 16 weeks after onset of streptozotocin diabetes (Experimental Example 3); type: in vivo, rat; conditions: for tail nerve conduction velocity 5 wks after administration: started 16 weeks after onset of STZ diabetes; for tail nerve conduction velocity 5 wks after administration / tail nerve conduction velocity Before administration: mean ± standard error; for tail nerve conduction velocity Before administration: 16 weeks after onset of STZ diabetes
Protocol: Diabetes was induced by intravenous administration of streptozotocin (65 mg/kg) to 6-week-old male Sprague-Dawley rats. Starting from 16 weeks after the onset of diabetes, a 0.5% hydroxypropylmethylcellulose suspension containing compound A-1 was orally administered once a day. At 5 weeks from the administration, tail nerve conduction velocity was measured with arm induction potential test device (Neuropack 2, manufactured by Nihon Kohden) according to a modification of the method of Miyoshi (Fukuoka Medical Journal, vol. 62, pp. 588-603 (1971)). To be specific, subcutaneous temperature at the tail was maintained at 37° C. and the tail nerve was percutaneously stimulated electrically at 2 stimulation points (interval 6 cm). The distance between the stimulation points was divided by the difference between latencies in induced electromyogram to give nerve conduction velocity.

[5] = system: kidney glomerulus of streptozotocin diabetic Sprague-Dawley rats; assay: Degree of glomerular disorder in streptozotocin-induced diabetic rats (Experimental Example 4); type: in vivo, rat; conditions: STZ diabetic rats; for glomerular disorder score: total score of 50 glomeruli (0-4 each), mean ± standard error
Protocol: Diabetes was induced by intravenous administration of streptozotocin (65 mg/kg) to 5-week-old male Sprague-Dawley rats. Starting from 9 weeks after the onset of diabetes, a 0.5% hydroxypropylmethylcellulose suspension containing compound A-1 was orally administered once a day. At 9 weeks from the administration, kidney was removed to determine the degree of glomerular disorder and fixed in a 10% neutral-buffered formalin solution. Tissue sections were stained with hematoxylin/eosin. Glomerulus was evaluated according to the degree of obstruction in 5 stages (0: no obstruction, 1: up to 25% obstruction, 2: up to 50% obstruction, 3: up to 75% obstruction, 4: up to 100% obstruction). Fifty glomeruli were evaluated per sample and the total score was used as an index of the degree of glomerular disorder. This operation was done under a single blind condition.

[6] = system: sciatic nerve of spontaneously diabetic mice (db/db); assay: Sciatic nerve conduction velocity in spontaneously diabetic mice (db/db) (Experimental Example 2); type: in vivo, mouse; conditions: for sciatic nerve conduction velocity 4 wks after administration / sciatic nerve conduction velocity 5 wks after administration: db/db mice, mean ± standard error; for effect on sciatic nerve conduction velocity (in words): spontaneous diabetic mice, oral once a day
Protocol: A 0.5% hydroxypropylmethylcellulose suspension containing the compound of the present invention was orally administered to 9-week-old male spontaneously diabetic mice (db/db) once a day. At 4-5 weeks from the administration, sciatic nerve conduction velocity was measured with an induction potential test device (Neuropack 2, manufactured by Nihon Kohden) according to a modification of the method of Yasuda (Diabetes, 38, p. 832-838 (1989)). To be specific, rectal temperature was maintained at 37° C. and two points of sciatic notch and ankle were percutaneously stimulated electrically. The distance between the stimulation points was divided by the difference between latencies in induced electromyogram to give nerve conduction velocity.

biosynthesis of TXA2 = assay: Biosynthesis of TXA2 in rats with diabetes (sodium ozagrel); type: in vivo, rat
[7] = system: tail nerve of rats with diabetes; assay: Tail nerve conduction velocity in rats with diabetes (sodium ozagrel); type: in vivo, rat

SMILES: Cc1ccc(-n2ccnc2)cc1C(O)c1c(C)cc(C(=O)[O-])cc1C.O.O.[Na+] (stereo not drawn) [Compound A-1, sodium 4-[α-hydroxy-2-methyl-5-(1-imidazolyl)benzyl]-3,5-dimethylbenzoate dihydrate]
- tail nerve conduction velocity 7 wks after administration ([1]; 0.03 mg/kg/day oral once a day): 42.0 ± 0.5 m/sec
- tail nerve conduction velocity 7 wks after administration ([1]; 0.1 mg/kg/day oral once a day): 43.4 ± 0.4 m/sec
- tail nerve conduction velocity 7 wks after administration ([1]; 0.3 mg/kg/day oral once a day): 43.7 ± 0.3 m/sec
- tail nerve conduction velocity 7 wks after administration ([1]; 1.0 mg/kg/day oral once a day): 44.8 ± 0.4 m/sec
- effect on tail nerve conduction velocity decreased by diabetes (in words) [1]: increased tail nerve conduction velocity
- blood glucose ([2]; 0.03 mg/kg/day oral once a day): 718.3 ± 50.7 mg/dL
- blood glucose ([2]; 0.1 mg/kg/day oral once a day): 772.1 ± 32.4 mg/dL
- blood glucose ([2]; 0.3 mg/kg/day oral once a day): 791.9 ± 65.5 mg/dL
- blood glucose ([2]; 1.0 mg/kg/day oral once a day): 718.4 ± 64.1 mg/dL
- effect on blood glucose (in words) ([2]; 0.03-1.0 mg/kg/day): without affecting the blood glucose
- urinary TXB2 excretion ([3]; 0.03 mg/kg/day oral once a day): 10.6 ± 1.4 ng/day/100 g body weight
- urinary TXB2 excretion ([3]; 0.1 mg/kg/day oral once a day): 6.9 ± 0.8 ng/day/100 g body weight
- urinary TXB2 excretion ([3]; 0.3 mg/kg/day oral once a day): 5.1 ± 0.5 ng/day/100 g body weight
- urinary TXB2 excretion ([3]; 1.0 mg/kg/day oral once a day): 3.4 ± 0.3 ng/day/100 g body weight
- effect on urinary TXB2 excretion increased by diabetes (in words) ([3]; dose-dependent, 0.03-1.0 mg/kg/day): decreased urinary TXB2 excretion
- tail nerve conduction velocity 5 wks after administration ([4]; 0.3 mg/kg/day oral once a day): 48.3 ± 0.6 m/sec
- tail nerve conduction velocity 5 wks after administration ([4]; 1 mg/kg/day oral once a day): 49.4 ± 0.4 m/sec
- tail nerve conduction velocity 5 wks after administration ([4]; 3 mg/kg/day oral once a day): 50.2 ± 0.5 m/sec
- effect on tail nerve conduction velocity lowered by the progression of diabetes (in words) ([4]; administration from 16 weeks after onset of diabetes, dose-dependent): increased tail nerve conduction velocity
- tail nerve conduction velocity Before administration ([4]; baseline of the 0.3 mg/kg/day group): 46.2 ± 0.5 m/sec
- tail nerve conduction velocity Before administration ([4]; baseline of the 1 mg/kg/day group): 46.1 ± 0.4 m/sec
- tail nerve conduction velocity Before administration ([4]; baseline of the 3 mg/kg/day group): 46.0 ± 0.3 m/sec
- glomerular disorder score ([5]; 0.3 mg/kg/day oral once a day for 9 weeks): 90.8 ± 10.0
- glomerular disorder score ([5]; 1 mg/kg/day oral once a day for 9 weeks): 65.7 ± 12.0
- glomerular disorder score ([5]; 10 mg/kg/day oral once a day for 9 weeks): 55.4 ± 9.2
- effect on glomerular disorder due to diabetes (in words) ([5]; dose-dependent): suppressed glomerular disorder

SMILES: Cc1ccc(-n2ccnc2)cc1[C@H](O)c1c(C)cc(C(=O)[O-])cc1C.O.[Na+] [Compound A-2, sodium (S)-(−)-4[α-hydroxy-2-methyl-5-(1-imidazolyl)benzyl]-3,5-dimethylbenzoate 2/3 hydrate]
- tail nerve conduction velocity 5 wks after administration ([1]; 0.03 mg/kg/day oral once a day): 40.7 ± 0.5 m/sec
- tail nerve conduction velocity 5 wks after administration ([1]; 0.1 mg/kg/day oral once a day): 42.6 ± 0.4 m/sec
- tail nerve conduction velocity 5 wks after administration ([1]; 0.3 mg/kg/day oral once a day): 43.0 ± 0.3 m/sec
- tail nerve conduction velocity 5 wks after administration ([1]; 1 mg/kg/day oral once a day): 42.6 ± 0.5 m/sec
- effect on tail nerve conduction velocity decreased by diabetes (in words) [1]: suppressed decrease in tail nerve conduction velocity
- sciatic nerve conduction velocity 4 wks after administration ([6]; 0.05 mg/kg/day oral once a day): 46.6 ± 1.5 m/sec
- sciatic nerve conduction velocity 4 wks after administration ([6]; 0.5 mg/kg/day oral once a day): 51.9 ± 1.2 m/sec
- sciatic nerve conduction velocity 4 wks after administration ([6]; 5 mg/kg/day oral once a day): 51.7 ± 1.4 m/sec
- effect on sciatic nerve conduction velocity (in words) [6]: increased sciatic nerve conduction velocity

SMILES: Cc1ccc(-n2ccnc2)cc1[C@H](O)c1c(C)cc(C(=O)O)cc1C [Compound A-4, (S)-(−)-4-[α-hydroxy-2-methyl-5-(1-imidazolyl)benzyl]-3,5-dimethylbenzoic acid]
- tail nerve conduction velocity 4 wks after administration ([1]; 0.3 mg/kg/day oral once a day): 40.9 ± 0.5 m/sec
- tail nerve conduction velocity 4 wks after administration ([1]; 1 mg/kg/day oral once a day): 41.3 ± 0.4 m/sec
- tail nerve conduction velocity 4 wks after administration ([1]; 3 mg/kg/day oral once a day): 41.7 ± 0.5 m/sec
- effect on tail nerve conduction velocity decreased by diabetes (in words) [1]: suppressed decrease in tail nerve conduction velocity
- sciatic nerve conduction velocity 5 wks after administration ([6]; 0.3 mg/kg/day oral once a day): 45.2 ± 1.2 m/sec
- sciatic nerve conduction velocity 5 wks after administration ([6]; 1 mg/kg/day oral once a day): 45.9 ± 0.7 m/sec
- sciatic nerve conduction velocity 5 wks after administration ([6]; 3 mg/kg/day oral once a day): 45.3 ± 0.8 m/sec
- effect on sciatic nerve conduction velocity (in words) [6]: increased sciatic nerve conduction velocity

SMILES: O=C([O-])/C=C/c1ccc(Cn2ccnc2)cc1.[Na+] [sodium ozagrel, sodium (E)-p-(imidazol-1-ylmethyl)cinnamate]
- effect on promotion of biosynthesis of TXA2 (in words) (biosynthesis of TXA2): suppresses promotion of biosynthesis of TXA2
- effect on decreased tail nerve conduction velocity (in words) [7]: does not improve decreased tail nerve conduction velocity
